The text below walks through data of article PMC6161599, “Inhibition of O-acetylserine sulfhydrylase by fluoroalanine derivatives” (Journal of Enzyme Inhibition and Medicinal Chemistry, 2018).

Common to all, as to assay type: biochemical
Assay [1] concerns the target T1, O-acetylserine sulfhydrylase A (OASS-A, CysK) (Salmonella enterica, UniProt P0A1E3).
T1 construct: recombinant STOASS-A, His-tag removed with factor Xa
Briefly: ninhydrin cysteine activity assay; PLP absorbance ([…] to […] nm) and fluorescence changes.

Assay [2] deals with T2, O-acetylserine sulfhydrylase B (OASS-B, CysM) (Salmonella enterica, UniProt P29848).
T2 construct: recombinant STOASS-B, His-tag removed with factor Xa
T2 sequence (P29848 whole entry): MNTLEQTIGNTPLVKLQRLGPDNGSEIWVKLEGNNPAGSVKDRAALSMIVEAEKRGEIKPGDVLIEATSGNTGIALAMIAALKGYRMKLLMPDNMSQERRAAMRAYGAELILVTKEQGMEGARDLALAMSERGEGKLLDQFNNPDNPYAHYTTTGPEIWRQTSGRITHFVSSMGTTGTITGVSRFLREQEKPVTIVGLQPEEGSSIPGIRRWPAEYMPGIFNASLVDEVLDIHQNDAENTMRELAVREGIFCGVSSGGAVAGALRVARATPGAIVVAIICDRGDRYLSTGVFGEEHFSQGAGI
The assay is described as follows: ninhydrin cysteine activity assay; PLP absorbance and fluorescence changes.

The target in assay [3] is T1, O-acetylserine sulfhydrylase A (OASS-A, CysK). Briefly: ninhydrin cysteine activity assay; inactivation kinetics; PLP absorbance and fluorescence changes.
The target of assay [4] is T2, O-acetylserine sulfhydrylase B (OASS-B, CysM). Described as above.

T1 sequence (P0A1E3 2-323): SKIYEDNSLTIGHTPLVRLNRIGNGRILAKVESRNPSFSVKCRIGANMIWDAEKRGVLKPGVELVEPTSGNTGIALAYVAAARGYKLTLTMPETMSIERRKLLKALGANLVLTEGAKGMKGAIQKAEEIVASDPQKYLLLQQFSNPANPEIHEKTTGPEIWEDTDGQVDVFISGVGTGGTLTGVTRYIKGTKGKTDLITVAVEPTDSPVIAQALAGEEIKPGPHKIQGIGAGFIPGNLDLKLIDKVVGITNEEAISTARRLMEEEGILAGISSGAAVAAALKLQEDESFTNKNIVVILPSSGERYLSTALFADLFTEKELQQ

Consider `NC(CF)C(=O)O` (stereo not shown) [F-Ala, monofluoroalanine], for which the half-inhibitory concentration (IC50) in assay [1] stood at 480 ± 50 µM; in assay [2], 1.29 ± 0.23 mM.
In the case of `N[C@H](C(=O)O)C(F)(F)F` [triF-Ala, β,β,β-trifluoroalanine], the values for the IC50 in assay [3] and in assay [4] were 130 ± 10 µM and 940 ± 60 µM, respectively.

As a reminder, the IC50 is the midpoint of a concentration-inhibition curve. A high value points to weaker potency.
